Measured values from patent US20240300976A1, “COMPOUNDS AS MODULATORS OF ENDOPLASMIC RETICULUM AMINOPEPTIDASE 1 (ERAP1)” (GREY WOLF THERAPEUTICS LIMITED, priority 2020, published 2024).

Molecular target: T1, ERAP1 (Homo sapiens, UniProt Q9NZ08)
T1 construct: Purified ERAP1(37-941)-10His (ERAP1); 10His (C)
Test: ERAP1 mediated hydrolysis of an amide substrate (10-mer inhibition assay), biochemical system
Conditions: 10-mer substrate, incubated at 23° C. for 1 h, excitation 279 nm and emission 355 nm; read-out: IC50 vs Decapeptide WRVYEKC(Dnp)ALK-acid (where Dnp is Dinitrophenyl maleimide) (10-mer)
Description: This peptide has minimal fluorescence as the N-terminal tryptophan residue's fluorescence is quenched by the dinitrophenol (DNP) residue within the peptide. However, as ERAP1 hydrolyses the N-terminal amide bond and tryptophan is released this internal quenching is lost and the reaction is monitored by the increase in tryptophan fluorescence over the course of the assay. For the purposes of this application this assay is referred to as the “1 Omer inhibition assay” and compound potencies are calculated and expressed as 1050 as would be familiar to a person skilled in the art.
Biological Assay 1: ERAP1 Mediated Hydrolysis of an Amide Substrate Measured in a Biochemical System
• 1× Assay buffer (AB): 25 mM Bis-tris propane, 0.05% w/v Hydroxypropylmethylcellulose pH 7.75 made with Optima grade water • Decapeptide WRVYEKC(Dnp)ALK-acid (where Dnp is Dinitrophenyl maleimide) (10-mer) • L-Leucine 7-amido-4-methylcoumarin (L-AMC) • Purified ERAP1(37-941)-10His (ERAP1)
12.5 μL ERAP1 enzyme in 1×AB was combined with 250 nL test compound in DMSO. 12.5 μL of either 240 μM L-AMC in 1×AB or 100 μM 10-mer in 1×AB was added to the reaction and incubated at 23° C. for 1 h. For detection, plates were read at excitation 365 nm and emission 442 nm (L-AMC) or excitation 279 nm and emission 355 nm (10-mer). Compound IC50 was determined using a 4-parameter equation.

T1 sequence (Q9NZ08 37-941): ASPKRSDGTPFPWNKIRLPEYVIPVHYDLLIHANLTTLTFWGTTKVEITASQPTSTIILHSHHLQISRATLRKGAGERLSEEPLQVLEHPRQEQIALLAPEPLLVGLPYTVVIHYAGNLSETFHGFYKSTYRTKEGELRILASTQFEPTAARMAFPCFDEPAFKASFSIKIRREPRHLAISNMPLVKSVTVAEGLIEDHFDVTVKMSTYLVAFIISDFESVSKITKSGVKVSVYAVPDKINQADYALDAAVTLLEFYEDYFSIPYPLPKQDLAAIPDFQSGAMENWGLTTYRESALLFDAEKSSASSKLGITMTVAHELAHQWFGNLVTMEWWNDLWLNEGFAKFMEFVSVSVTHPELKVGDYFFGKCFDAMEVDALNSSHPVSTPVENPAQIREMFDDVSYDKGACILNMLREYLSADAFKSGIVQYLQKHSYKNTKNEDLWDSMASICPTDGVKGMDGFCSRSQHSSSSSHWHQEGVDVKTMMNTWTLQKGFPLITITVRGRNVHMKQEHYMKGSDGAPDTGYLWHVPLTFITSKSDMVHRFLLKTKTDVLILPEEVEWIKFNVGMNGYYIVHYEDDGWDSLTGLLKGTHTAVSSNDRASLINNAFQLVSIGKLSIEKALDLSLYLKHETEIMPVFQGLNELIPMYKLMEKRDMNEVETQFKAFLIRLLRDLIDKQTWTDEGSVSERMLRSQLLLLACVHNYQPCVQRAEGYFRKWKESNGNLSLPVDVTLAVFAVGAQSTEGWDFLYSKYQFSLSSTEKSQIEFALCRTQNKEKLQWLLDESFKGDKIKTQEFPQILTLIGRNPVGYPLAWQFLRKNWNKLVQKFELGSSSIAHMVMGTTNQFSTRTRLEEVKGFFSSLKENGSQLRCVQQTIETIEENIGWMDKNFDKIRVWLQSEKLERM

Compound | IC50
3-chloro-2-(1H-tetrazol-1-yl)-7,8,9,9a,10,11,12,13-octahydro-6H, 20H-dibenzo[b,f]pyrido[1,2-h][1]oxa[4]thia[5,8]diazacyclotridecine-17-carboxylic acid 19,19-dioxide [Example 54] | < 250 nM
O=C(O)c1ccc2c(c1)S(=O)(=O)Nc1cc(C(F)(F)F)ccc1N1CCCCC1C/C=C/CO2 (racemic) [Example 1, (E)-2-(trifluoromethyl)-7,8,9,9a,10,13-hexahydro-6H, 20H-dibenzo[b,f]pyrido[1,2-h][1]oxa[4]thia[5,8]diazacyclotridecine-17-carboxylic acid 19,19-dioxide] | < 250 nM
N#Cc1ccc2c(c1)NS(=O)(=O)c1cc(C(=O)O)ccc1OCCC1CCCCN21 (racemic) [Example 2, 2-cyano-7,8,9,9a,10,11-hexahydro-6H, 18H-dibenzo[b,f]pyrido[1,2-h][1]oxa[4]thia[5,8]diazacycloundecine-15-carboxylic acid 17,17-dioxide] | > 1000 nM
N#Cc1ccc2c(c1)NS(=O)(=O)c1cc(C(=O)O)ccc1OCC1CCCCN21 (racemic) [Example 3, 8-cyano-12,13,14,15,15a,16-hexahydro-6H-dibenzo[b,f]pyrido[1,2 h][1,4,5,8]oxathiadiazecine-3-carboxylic acid 5,5-dioxide] | < 250 nM
N#Cc1ccc2c(c1)NS(=O)(=O)c1cc(C(=O)O)ccc1OCCCCC1CCCCN21 (racemic) [Example 4, 2-cyano-7,8,9,9a,10,11,12,13-octahydro-6H,20H-dibenzo[b,f]pyrido[1,2-h][1]oxa[4]thia[5,8]diazacyclotridecine-17-carboxylic acid 19,19-dioxide] | < 250 nM
N#Cc1cc2c(cc1Cl)N1CCCCC1COc1ccc(C(=O)O)cc1S(=O)(=O)N2 (racemic) [Example 14, 9-chloro-8-cyano-12,13,14,15,15a,16-hexahydro-6H-dibenzo[b,f]pyrido[1,2-h][1,4,5,8]oxathiadiazecine-3-carboxylic acid 5,5-dioxide] | < 250 nM
N#Cc1ccc2c(c1)NS(=O)(=O)c1cc(C(=O)O)ccc1OC/C=C/CC1CCCCN21 (racemic) [Example 15, (E)-2-cyano-7,8,9,9a,10,13-hexahydro-6H, 20H-dibenzo[b,f]pyrido[1,2-h][1]oxa[4]thia[5,8]diazacyclotridecine-17-carboxylic acid 19,19-dioxide] | < 250 nM
CS(=O)(=O)c1ccc2c(c1)NS(=O)(=O)c1cc(C(=O)O)ccc1OCC1CCCCN21 (racemic) [Example 18, 8-(methylsulfonyl)-12,13,14,15,15a,16-hexahydro-6H-dibenzo[b,f]pyrido[1,2-h][1,4,5,8]oxathiadiazecine-3-carboxylic acid 5,5-dioxide] | 250 to 1000 nM
N#Cc1cc2c(cc1Cl)N1CCCCC1CCCOc1ccc(C(=O)O)cc1S(=O)(=O)N2 (racemic) [Example 21, 3-chloro-2-cyano-6,7,8,9,9a,10,11,12-octahydro-19H-dibenzo[b,f]pyrido[1,2-h][1]oxa[4]thia[5,8]diazacyclododecine-16-carboxylic acid 18,18-dioxide] | < 250 nM
N#Cc1cc2c(cc1Cl)N1CCCCC1CCCCOc1ccc(C(=O)O)cc1S(=O)(=O)N2 (racemic) [Example 22, 3-chloro-2-cyano-7,8,9,9a,10,11,12,13-octahydro-6H, 20H-dibenzo[b,f]pyrido[1,2-h][1]oxa[4]thia[5,8]diazacyclotridecine-17-carboxylic acid 19,19-dioxide] | < 250 nM
CS(=O)(=O)c1ccc2c(c1)NS(=O)(=O)c1cc(C(=O)O)ccc1OCCCCC1CCCCN21 (racemic) [Example 23, 2-(methylsulfonyl)-7,8,9,9a,10,11,12,13-octahydro-6H, 20H-dibenzo[b,f]pyrido[1,2-h][1]oxa[4]thia[5,8]diazacyclotridecine-17-carboxylic acid 19,19-dioxide] | 250 to 1000 nM
N#Cc1cc2c(cc1F)N1CCCCC1COc1ccc(C(=O)O)cc1S(=O)(=O)N2 (racemic) [Example 24, 8-cyano-9-fluoro-12,13,14,15,15a,16-hexahydro-6H-dibenzo[b,f]pyrido[1,2-h][1,4,5,8]oxathiadiazecine-3-carboxylic acid 5,5-dioxide] | < 250 nM
CS(=O)(=O)c1cc2c(cc1F)N1CCCCC1COc1ccc(C(=O)O)cc1S(=O)(=O)N2 (racemic) [Example 25, 9-fluoro-8-(methylsulfonyl)-12,13,14,15,15a,16-hexahydro-6H-dibenzo[b,f]pyrido[1,2-h][1,4,5,8]oxathiadiazecine-3-carboxylic acid 5,5-dioxide] | < 250 nM
N#Cc1cc2c(cc1F)N1CCCCC1CCCCOc1ccc(C(=O)O)cc1S(=O)(=O)N2 (racemic) [Example 28, 2-cyano-3-fluoro-7,8,9,9a,10,11,12,13-octahydro-6H,20H-dibenzo[b,f]pyrido[1,2-h][1]oxa[4]thia[5,8]diazacyclotridecine-17-carboxylic acid 19,19-dioxide] | < 250 nM
N#Cc1cc2c(cc1F)N1CCCCC1CCCOc1ccc(C(=O)O)cc1S(=O)(=O)N2 (racemic) [Example 29, 2-cyano-3-fluoro-6,7,8,9,9a,10,11,12-octahydro-19H-dibenzo[b,f]pyrido[1,2-h][1]oxa[4]thia[5,8]diazacyclododecine-16-carboxylic acid 18,18-dioxide] | < 250 nM
N#Cc1cc2c(cc1Cl)N1CCCCC1C/C=C/COc1ccc(C(=O)O)cc1S(=O)(=O)N2 (racemic) [Example 30, (E)-3-chloro-2-cyano-7,8,9,9a,10,13-hexa hydro-6H, 20H-dibenzo[b,f]pyrido[1,2-h][1]oxa[4]thia[5,8]diazacyclotridecine-17-carboxylic acid 19,19-dioxide] | < 250 nM
CS(=O)(=O)c1cc2c(cc1F)N1CCCCC1CCCCOc1ccc(C(=O)O)cc1S(=O)(=O)N2 (racemic) [Example 31, 3-fluoro-2-(methylsulfonyl)-7,8,9,9a,10,11,12,13-octahydro-6H, 20H-dibenzo[b,f]pyrido[1,2-h][1]oxa[4]thia[5,8]diazacyclotridecine-17-carboxylic acid 19,19-dioxide] | < 250 nM
CN1c2cc(S(C)(=O)=O)ccc2N2CCCCC2CCCOc2ccc(C(=O)O)cc2S1(=O)=O (racemic) [Example 34, 19-methyl-2-(methylsulfonyl)-6,7,8,9,9a,10,11,12-octahydro-19H-dibenzo[b,f]pyrido[1,2-h][1]oxa[4]thia[5,8]diazacyclododecine-16-carboxylic acid 18,18-dioxide] | < 250 nM
N#Cc1cc2c(cc1Cl)N1CCCCC1/C=C/COc1ccc(C(=O)O)cc1S(=O)(=O)N2 (racemic) [Example 35, (E)-3-chloro-2-cyano-6,7,8,9,9a,12-hexahydro-19H-dibenzo[b,f]pyrido[1,2-h][1]oxa[4]thia[5,8]diazacyclododecine-16-carboxylic acid 18,18-dioxide] | < 250 nM
CS(=O)(=O)c1ccc2c(c1)NS(=O)(=O)c1cc(C(=O)O)ccc1OCCCC1CCCCN21 (racemic) [Example 36, 2-(methylsulfonyl)-6,7,8,9,9a,10,11,12-octahydro-19H-dibenzo[b,f]pyrido[1,2-h][1]oxa[4]thia[5,8]diazacyclododecine-16-carboxylic acid 18,18-dioxide] | < 250 nM
CS(=O)(=O)c1cc2c(cc1F)N1CCCCC1CCCOc1ccc(C(=O)O)cc1S(=O)(=O)N2 (racemic) [Example 51, 3-fluoro-2-(methylsulfonyl)-6,7,8,9,9a,10,11,12-octahydro-19H-dibenzo[b,f]pyrido[1,2-h][1]oxa[4]thia[5,8]diazacyclododecine-16-carboxylic acid 18,18-dioxide] | 250 to 1000 nM
N#Cc1cc2c(cc1Cl)N1CCCCC1COCCOc1ccc(C(=O)O)cc1S(=O)(=O)N2 (racemic) [Example 65, 3-chloro-2-cyano-6,7,8,9,9a,10,12,13-octahydro-20H-dibenzo[e,i]pyrido[1,2-k][1,4]dioxa[7]thia[8,11]diazacyclotridecine-17-carboxylic acid 19,19-dioxide] | < 250 nM
N#Cc1cc2c(cc1Cl)N1CCCCC1CNCCOc1ccc(C(=O)O)cc1S(=O)(=O)N2 (racemic) [Example 66, 3-chloro-2-cyano-7,8,9,9a,10,11,12,13-octahydro-6H, 20H-dibenzo[b,f]pyrido[1,2-h][1]oxa[4]thia[5,8,11]triazacyclotridecine-17-carboxylic acid 19,19-dioxide] | > 1000 nM
N#Cc1ccc2c(c1)NS(=O)(=O)c1cc(C(=O)O)ccc1OCCC1CCCCN21 (single isomer, unassigned) [Example 6, 2-cyano-7,8,9,9a,10,11-hexahydro-6H, 18H-dibenzo[b,f]pyrido[1,2-h][1]oxa[4]thia[5,8]diazacycloundecine-15-carboxylic acid 17,17-dioxide] | > 1000 nM
N#Cc1ccc2c(c1)NS(=O)(=O)c1cc(C(=O)O)ccc1OCCC1CCCCN21 (single isomer, unassigned) [Example 7, 2-cyano-7,8,9,9a,10,11-hexahydro-6H, 18H-dibenzo[b,f]pyrido[1,2-h][1]oxa[4]thia[5,8]diazacycloundecine-15-carboxylic acid 17,17-dioxide] | > 1000 nM
